Reference: US12667087B2, “Methods of treatment with aminolevulinic acid synthase 2 (ALAS2) modulators” (Agios Pharmaceuticals, Inc., priority 2019, dated 2026)

The molecules below were run against T1, wild type ALAS2 (Homo sapiens, UniProt P22557) (assay: General IC50 assay, version 1 (5 ug/mL ALAS2), ALA by mass spectrometry). Conditions: version 1 assay: 5 ug/mL ALAS2, 0 uM PLP, 1 h reaction.
T1 construct: MBP (TEV-cleavable) (C, cleaved yes); made in house; host or cells: E. coli
T1 sequence (P22557 79-587): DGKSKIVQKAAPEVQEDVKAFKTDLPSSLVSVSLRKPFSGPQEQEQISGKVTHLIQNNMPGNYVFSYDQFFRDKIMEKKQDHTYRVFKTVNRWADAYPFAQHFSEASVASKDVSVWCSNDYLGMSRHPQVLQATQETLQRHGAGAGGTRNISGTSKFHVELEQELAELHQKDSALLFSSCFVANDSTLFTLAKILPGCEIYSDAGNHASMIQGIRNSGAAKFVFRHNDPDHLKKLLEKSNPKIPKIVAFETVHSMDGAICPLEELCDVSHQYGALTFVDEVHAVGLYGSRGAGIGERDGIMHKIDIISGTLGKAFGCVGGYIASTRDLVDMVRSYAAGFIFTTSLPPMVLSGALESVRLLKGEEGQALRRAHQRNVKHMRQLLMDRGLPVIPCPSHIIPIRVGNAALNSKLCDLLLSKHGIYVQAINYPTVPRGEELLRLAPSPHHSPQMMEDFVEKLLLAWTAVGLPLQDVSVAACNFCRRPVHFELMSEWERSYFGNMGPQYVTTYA
Type: biochemical
Description: (§1) The exemplified compounds in Table I were tested in vitro against the wild type ALAS2. As described in Example 38, two concentrations of ALAS2 were used: 5 ug/mL ALAS2 (for the version I assay) and 2 ug/mL (for the version 2 assay). “A” refers to an IC50 less than 10.0 μM; “B” refers to an IC50 from 10.0 μM to 50.0 μM; and “C” refers to an AC50 greater than 50.0 μM.
(§2) ALAS2 sequence (see FIG. 8) (residues 79-587) was expressed in E. coli as a TEV cleavable C-terminally MBP tagged construct. Purification steps included an amylose column, followed by MBP tag cleavage and passage through a Ni-NTA column to remove cleaved MBP. ALAS2 was further purified and exchanged into storage buffer (50 mM Tris, 500 mM NaCl, 1 mM DTT, 10 μM PLP, pH 8.0) by size exclusion through a Superdex 200 column and stored at −80° C.
(§3) Preparation of stock solutions: All solutions were prepared by standard methods with the exception of glycine and succinyl CoA. A 1 M solution of glycine was prepared and the pH adjusted to 8.0 by addition of […]. A 1 mM solution of succinyl CoA was prepared in 20 mM phosphoric acid, pH 2.0 to ensure its stability to hydrolysis.
(§4) Routine compound testing for IC50 measurements: Assays were carried out in 96-well V-bottom polypropylene plates (Greiner-Bio cat. no. 651201) at room temperature. Test compound dilution series and DMSO blanks (1 μL) were dispensed into the 96-well plates. A solution of 1.1× assay mix was prepared to contain, in the final 1× assay conditions: 5 μg/mL ALAS2 (for the version 1 assay) or 2 ug/mL (for the version 2 assay), 20 mM sodium phosphate pH 8.0, 3.5 mM glycine, 1 mM MgCl2, 30 mM NaCl, 0.03% BSA, 1 mM EDTA. Assay mix (45 μL) was added to each well, and compound and assay mix were pre-incubated for 1 h at room temperature. Assays were then initiated by addition of 5 μL 1 mM succinyl CoA to each well to give a final concentration of 100 μM. Reactions proceeded for 1 h (version 1 assay) or 2 h (version 2 assay) at room temperature, then were quenched by addition of 200 μL acetonitrile containing 1% formic acid and 0.2 μg/mL ^13C, ^15N aminolevulinic acid (ALA) as an internal standard. The plates were centrifuged at 4° C. for 1 min at 3500 rpm, then 200 μL of supernatant was transferred to a fresh 96-well plate for detection of ALA by high throughput mass spectrometry.
(§5) Measurement of ALA concentration by high throughput mass spectrometry: ALA was monitored in positive mode on a Sciex QTRAP 6500 connected to a Shimadzu 20AD LC using the conditions outlined in the table below. Samples were transferred from the assay plate and loaded onto a ZIC HILIC Trap column (Optimize Technologies, 4 μL, 10 μM) at a flow rate of 1.2 mL/min in 99% acetonitrile, 1% ddH2O containing 0.5% formic acid to remove nonvolatile components with a 6 s desalt cycle. Analytes were eluted with 95% acetonitrile, 5% ddH2O containing 0.5% formic acid in 12 s elution cycles. Concentrations of ALA in each sample were measured by comparison to an authentic standard curve, and IC50s were determined by fitting to the log(compound) vs. response equation Y=bottom+(top−bottom)/(1+10^((log IC50-X)*HillSlope)).

In the case of `CN(N)c1snnc1-c1ccccc1` [Compound 16], the “IC50 (uM) ALAS2 v1; 0 uM PLP” value is reported as “No Fit”.
For `CC(C)N(N)c1nnn[nH]1` [Compound 62], the “IC50 (uM) ALAS2 v1; 0 uM PLP” value was “No Fit”.

Same assay, conditions: version 1 assay: 5 ug/mL ALAS2, 0 uM PLP, 1 h reaction; read-out: IC50 (uM) ALAS2 v1; 0 uM PLP

Compared with `NNc1nc(-c2ccccn2)no1` [Compound 6], `NNc1nc(-c2cccnc2)no1` [Compound 19] is lower in IC50: 10 to 50 µM for the first, less than 10 µM for the second. The second is the more potent here.

`NNc1cc(-c2ccncc2)[nH]n1` [Compound 7] and `NNc1cc(-c2ccccc2)[nH]n1` [Compound 9] fall in the same range of IC50: 10 to 50 µM for the first, 10 to 50 µM for the second.

Compared with `NNc1nc(-c2ccc(F)cc2)no1` [Compound 8], `NNc1nc(-c2ccncc2)no1` [Compound 20] is lower in IC50: 10 to 50 µM for the first, less than 10 µM for the second. The second is the more potent here.

First: NNc1ccn(-c2ccccc2)n1 [Compound 10]
Second: NNc1nnnn1-c1ccccc1 [Compound 15]
The IC50 of the first is lower: 10 to 50 µM for the first, greater than 50 µM for the second.

`Cc1ccccc1-c1nnc(NN)[nH]1` [Compound 11] and `NNc1nnc(-c2ccccc2)[nH]1` [Compound 34] cannot be ordered by IC50: less than 10 µM for the first, less than 10 µM for the second.

`NNc1nnc(C2CCC2)[nH]1` [Compound 12] and `NNc1nnc(O)[nH]1` [Compound 50] cannot be ordered by IC50: greater than 50 µM for the first, greater than 50 µM for the second.

Compared with `CCCc1nnc(NN)[nH]1` [Compound 13], `NNc1nnc(C(F)(F)F)[nH]1` [Compound 44] is lower in IC50: 10 to 50 µM for the first, less than 10 µM for the second.

Compared with `NNc1nc(N2CCOCC2)n[nH]1` [Compound 14], `NNc1nnn[nH]1` [Compound 67] is lower in IC50: 10 to 50 µM for the first, less than 10 µM for the second.

`NNc1nc(-c2ccc(N)cc2)cs1` [Compound 17] and `NNc1nc(-c2ccccc2)cs1` [Compound 26] cannot be ordered by IC50: greater than 50 µM for the first, greater than 50 µM for the second.

`NNc1nc(-c2ccco2)cs1` [Compound 18] and `Cc1csc(NN)n1` [Compound 42] cannot be ordered by IC50: greater than 50 µM for the first, greater than 50 µM for the second.

`NNc1nc(-c2ccccc2)no1` [Compound 21] and `NNc1nnc(-c2ccccc2)s1` [Compound 27] cannot be ordered by IC50: less than 10 µM for the first, less than 10 µM for the second.

First: NNc1nnc(-c2ccccn2)s1 [Compound 22]
Second: COc1ccc(-c2nnc(NN)s2)cc1 [Compound 24]
The IC50 of the first is lower: less than 10 µM for the first, 10 to 50 µM for the second.

Compared with `NNc1nc(C(F)(F)F)cs1` [Compound 23], `NNc1cc(C(F)(F)F)n[nH]1` [Compound 28] is lower in IC50: greater than 50 µM for the first, 10 to 50 µM for the second.

Compared with `NNc1nnc(C2CC2)s1` [Compound 25], `NNc1nnc(C(F)(F)F)s1` [Compound 29] is lower in IC50: greater than 50 µM for the first, less than 10 µM for the second. The second is the more potent here.

`Cn1c(NN)nnc1-c1ccccc1` [Compound 30] and `CN(N)c1nnnn1Cc1ccccc1` [Compound 65] cannot be ordered by IC50: greater than 50 µM for the first, greater than 50 µM for the second.

First: NNc1ccn(CC(F)(F)F)n1 [Compound 31]
Second: NNc1ccn(CC(F)F)n1 [Compound 33]
The IC50 of the first is higher: greater than 50 µM for the first, 10 to 50 µM for the second. The second is the more potent here.

`CC(C)n1ccc(NN)n1` [Compound 32] and `NNc1ccn(CC(=O)O)n1` [Compound 35] cannot be ordered by IC50: less than 10 µM for the first, less than 10 µM for the second.

First: CN(N)c1nnc(C(F)(F)F)[nH]1 [Compound 36]
Second: CN(N)c1n[nH]nc1C(F)(F)F [Compound 37]
The IC50 of the first is lower: less than 10 µM for the first, 10 to 50 µM for the second. The first is the more potent here.

`CCN(N)c1noc(=O)[nH]1` [Compound 38] and `CN(N)c1noc(=O)[nH]1` [Compound 45] cannot be ordered by IC50: less than 10 µM for the first, less than 10 µM for the second.

`NNc1n[nH]nc1C(F)(F)F` [Compound 39] and `CCOC(=O)c1[nH]cnc1NN` [Compound 46] cannot be ordered by IC50: less than 10 µM for the first, less than 10 µM for the second.

First: Cc1cnc(NN)s1 [Compound 40]
Second: N#Cc1cnc(NN)s1 [Compound 48]
The IC50 of the first is lower: less than 10 µM for the first, 10 to 50 µM for the second.

`COCc1cnc(NN)s1` [Compound 41] and `NNc1ncc(C(=O)O)s1` [Compound 49] cannot be ordered by IC50: greater than 50 µM for the first, greater than 50 µM for the second.

`CN(N)c1n[nH]c(=O)[nH]1` [Compound 43] and `CN(N)c1nnn[nH]1` [Compound 64] cannot be ordered by IC50: less than 10 µM for the first, less than 10 µM for the second.

Going from `NNc1nnco1` [Compound 47] to `NNc1nnc[nH]1` [Compound 66], the IC50 falls from greater than 50 µM to less than 10 µM. The second is the more potent here.

First: COCc1cnc(N(N)C(=O)C(F)(F)F)s1 [Compound 51]
Second: CCOC(=O)c1sc(NN)nc1C [Compound 57]
The IC50 of the first is higher: greater than 50 µM for the first, 10 to 50 µM for the second. The second is the more potent here.

`Cc1nc(C#N)c(NN)o1` [Compound 52] and `N#Cc1ncoc1NN` [Compound 59] cannot be ordered by IC50: greater than 50 µM for the first, greater than 50 µM for the second.

`NNc1nc(CO)cs1` [Compound 53] and `Cc1nc(NN)sc1C(=O)O` [Compound 54] fall in the same range of IC50: 10 to 50 µM for the first, 10 to 50 µM for the second.

`Cn1nnnc1NN` [Compound 55] and `Cn1cnnc1NN` [Compound 58] cannot be ordered by IC50: greater than 50 µM for the first, greater than 50 µM for the second.

`NN(CCO)c1nnn[nH]1` [Compound 56] and `CCCN(N)c1nnn[nH]1` [Compound 60] cannot be ordered by IC50: greater than 50 µM for the first, greater than 50 µM for the second.

`NN(c1nnn[nH]1)C1CC1` [Compound 61] and `CCN(N)c1nnn[nH]1` [Compound 63] cannot be ordered by IC50: greater than 50 µM for the first, greater than 50 µM for the second.

What follows are molecules tested against T1, wild type ALAS2 (assay: General IC50 assay, version 2 (2 ug/mL ALAS2), ALA by mass spectrometry). Conditions: version 2 assay: 2 ug/mL ALAS2, 0 uM PLP, 2 h reaction, read-out: IC50 (uM) ALAS2 v2.
Type: biochemical
Description: as §1, §2, §3, §4, §5

`NNc1nc(-c2ccnc3ccccc23)no1` [Compound 1] and `NNc1nc(-c2ccc3ccccc3c2)no1` [Compound 2] cannot be ordered by IC50: less than 10 µM for the first, less than 10 µM for the second.

Compared with `NNc1nc(-c2cccc(C(F)(F)F)c2)no1` [Compound 3], `NNc1nc(-c2ccc(C(F)(F)F)cc2)no1` [Compound 4] is lower in IC50: greater than 50 µM for the first, 10 to 50 µM for the second.

Work on `COc1ccc(-c2noc(NN)n2)cc1` [Compound 5] yielded an IC50 of 10 to 50 µM.
